From patent US20200017495A1, “NOVEL HETEROCYCLIC COMPOUNDS AND THEIR USE IN PREVENTING OR TREATING BACTERIAL INFECTIONS” (priority 2017, published 2020)
Where two headings read alike, the source gives them in different places.

Legend:
Test in all cases: MIC of compounds alone and combined with antibacterials, broth microdilution (CLSI)
Assay type in all cases: cell-based
[1] = tested on: Citrobacter koseri (CKR) isolates
Summary of the method: (§1)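 First, log-phase suspensions are brought to 5.10^5 CFU/mL final in ca-MHB; plates then incubate 16-20 h at 35° C in air. Growth is judged visually, giving the compound MIC alone and the antibacterial MIC at each compound concentration.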

[2] = tested on: Serratia marcescens (SMA) isolates
Summary of the method: as §1

[3] = tested on: Providencia rettgeri (PRE) isolates
Summary of the method: as §1

[4] = tested on: Morganella morganii (MMO) isolates
Summary of the method: as §1

[5] = tested on: Klebsiella pneumoniae (KPN) isolates
Summary of the method: as §1

Measured: MIC

CO/N=C(\C(=O)N[C@@H]1C(=O)N2C(C(=O)O)=C(COC(N)=O)CS[C@H]12)c1ccco1 [FUR, Cefuroxime]
>512 µg/mL: [5]; strain KPN 6299, genotype TEM-1, SHV-11, OXA-163 | [5]; strain KPN BAA-1898, genotype TEM-1, SHV-11, SHV-12, KPC-2
8 µg/mL: [5]; strain KPN UFR23, genotype TEM-1, SHV-1, OXA-48
16 µg/mL: [5]; strain KPN LIB, genotype SHV-11, OXA-48
128 µg/mL: [4]; strain MMO UFR243, genotype DHA-1 | [4]; strain MMO UFR245, genotype DHA-1 | [4]; strain MMO UFR246, genotype DHA-1 | [5]; strain KPN UFR24, genotype TEM-1, SHV-2, SHV-11, OXA-1, OXA-48, OXA-47
32 µg/mL: [5]; strain KPN 700603, genotype SHV-18, OXA-2 | [5]; strain KPN UFR22_O, genotype TEM-1, SHV-1, OXA-48 | [5]; strain KPN UFR80, genotype SHV-11, DHA-1, OXA-1
>256 µg/mL: [1]; strain CKO UFR149, genotype OXA-48 | [2]; strain SMA UFR30, genotype OXA-405 | [2]; strain SMA UFR134, genotype TEM-1, BES-1 | [2]; strain SMA UFR135, genotype TEM-1, KPC-2 | [2]; strain SMA UFR136, genotype TEM-1, SHV-12, KPC-2 | [2]; strain SMA UFR139, genotype SME-2 | [2]; strain SMA UFR141, genotype OXA-48 | [2]; strain SMA UFR142, genotype OXA-48 | [2]; strain SMA UFR143, genotype CTX-M-15, OXA-1, OXA-48 | [2]; strain SMA UFR238, genotype OXA-48 | [3]; strain PRE UFR99, genotype OXA-1, OXA-181 | [4]; strain MMO 200321, genotype TEM-1, CTX-M-15, OXA-1 | [4]; strain MMO UFR144, genotype TEM-1, CTX-M-15 | [4]; strain MMO UFR240, genotype CTX-M-9 | [4]; strain MMO UFR241, genotype TEM-1, CTX-M-15 | [4]; strain MMO UFR242, genotype TEM-52 | [4]; strain MMO UFR247, genotype DHA-1 | [5]; strain KPN 110376, genotype TEM-1, SHV-1, CTX-M-15, OXA-1, OXA-48 | [5]; strain KPN 121206, genotype SHV-1, NDM-1 | [5]; strain KPN 131119, genotype TEM-1, SHV-11, CTX-M-15, OXA-1, OXA-48 | [5]; strain KPN 140513, genotype TEM-1, SHV-11, CTX-M-15, KPC-3 | [5]; strain KPN 160143, genotype TEM-1, SHV-1, CTX-M-15, KPC-2, OXA-1 | [5]; strain KPN 190128, genotype TEM-1, SHV-32, CTX-M-15, OXA-1 | [5]; strain KPN 190270, genotype TEM-1, SHV-76, CTX-M-15, OXA-1 | [5]; strain KPN 190425, genotype TEM-1, SHV-1, CTX-M-15, OXA-1 | [5]; strain KPN 190551, genotype TEM-1, SHV-1, CTX-M-15, OXA-1 | [5]; strain KPN 200047, genotype TEM-1, SHV-32, CTX-M-15, OXA-1 | [5]; strain KPN 200327, genotype TEM-1, SHV-1, CTX-M-15, OXA-1 | [5]; strain KPN 260251, genotype TEM-1, SHV-11, SHV-12, CTX-M-15, KPC-2 | [5]; strain KPN 260252, genotype TEM-1, SHV-11, KPC-3 | [5]; strain KPN 260376, genotype SHV-1, SHV-49, OXA-1 | [5]; strain KPN 270077, genotype TEM-1, SHV-1, CTX-M-15 | [5]; strain KPN ARA, genotype TEM-1, SHV-11, CTX-M-15, OXA-1, OXA-48 | [5]; strain KPN UFR25, genotype TEM-1, SHV-11, CTX-M-15, OXA-162 | [5]; strain KPN UFR27, genotype TEM-1, SHV-28, CTX-M-15, OXA-204 | [5]; strain KPN UFR28, genotype TEM-1, SHV-1, CTX-M-15, OXA-1, OXA-232 | [5]; strain KPN UFR42, genotype SHV-2, CTX-M-15 OXA-1, OXA-181, NDM-1 | [5]; strain KPN UFR65, genotype TEM-1, SHV-11, KPC-2 | [5]; strain KPN UFR66, genotype TEM-1, SHV-11, CTX-M-15, KPC-2 | [5]; strain KPN UFR67, genotype TEM-1, SHV-11, KPC-3 | [5]; strain KPN UFR68, genotype TEM-1, SHV-11, CTX-M-15, KPC-3 | [5]; strain KPN UFR76, genotype TEM-155, SHV-11, ACT-1, OXA-2 | [5]; strain KPN UFR78, genotype TEM-1, SHV-1, CTX-M-15, CMY-2, OXA-1, OXA-48 | [5]; strain KPN UFR79, genotype DHA-1, OXA-1 | [5]; strain KPN UFR81, genotype TEM-1, SHV-1, DHA-1, OXA-48 | [5]; strain KPN UFR215, genotype SHV-27, CTX-M-15 | [5]; strain KPN UFR216, genotype SHV-28, CTX-M-15 | [5]; strain KPN UFR217, genotype TEM-1, SHV-1, CTX-M-15 | [5]; strain KPN UFR219, genotype SHV-12, CTX-M-15 | [5]; strain KPN UFR220, genotype TEM-1, SHV-12, DHA-1 | [5]; strain KPN UFR221, genotype TEM-1, SHV-11, CTX-M-14, DHA-1 | [5]; strain KPN UFR222, genotype DHA-2 | [5]; strain KPN UFR227O, genotype TEM-x, SHV-x, CTX-M-x
256 µg/mL: [2]; strain SMA UFR137, genotype SME-1 | [2]; strain SMA UFR138, genotype SME-1 | [2]; strain SMA UFR239, genotype ESAC
64 µg/mL: [1]; strain CKO ROU, genotype TEM-1, SHV-12, CTX-M-15, OXA-1, OXA-48 | [1]; strain CKO UFR150, genotype TEM-1, OXA-48 | [3]; strain PRE UFR236, genotype TEM-1, OXA-48 | [4]; strain MMO UFR244, genotype DHA-1 | [5]; strain KPN UFR77, genotype CMY-2

COCC1=C(C(=O)O)N2C(=O)[C@@H](NC(=O)/C(=N\OC)c3csc(N)n3)[C@H]2SC1 [POD, Cefpodoxime]
4 µg/mL: [1]; Citrobacter koseri, strain CKO ROU, genotype TEM-1, SHV-12, CTX-M-15, OXA-1, OXA-48, read-out: MIC
64 µg/mL: [3]; Providencia rettgeri, strain PRE UFR236, genotype TEM-1, OXA-48, read-out: MIC | [4]; Morganella morganii, strain MMO UFR243, genotype DHA-1, read-out: MIC | [4]; Morganella morganii, strain MMO UFR245, genotype DHA-1, read-out: MIC | [4]; Morganella morganii, strain MMO UFR246, genotype DHA-1, read-out: MIC | [4]; Morganella morganii, strain MMO UFR247, genotype DHA-1, read-out: MIC | [5]; Klebsiella pneumoniae, strain KPN 6299, genotype TEM-1, SHV-11, OXA-163, read-out: MIC | [5]; Klebsiella pneumoniae, strain KPN UFR77, genotype CMY-2, read-out: MIC
8 µg/mL: [2]; Serratia marcescens, strain SMA UFR139, genotype SME-2, read-out: MIC | [2]; Serratia marcescens, strain SMA UFR141, genotype OXA-48, read-out: MIC | [2]; Serratia marcescens, strain SMA UFR142, genotype OXA-48, read-out: MIC | [2]; Serratia marcescens, strain SMA UFR238, genotype OXA-48, read-out: MIC
2 µg/mL: [2]; Serratia marcescens, strain SMA UFR138, genotype SME-1, read-out: MIC | [5]; Klebsiella pneumoniae, strain KPN UFR80, genotype SHV-11, DHA-1, OXA-1, read-out: MIC
0.5 µg/mL: [5]; Klebsiella pneumoniae, strain KPN UFR23, genotype TEM-1, SHV-1, OXA-48, read-out: MIC
1 µg/mL: [2]; Serratia marcescens, strain SMA UFR137, genotype SME-1, read-out: MIC | [5]; Klebsiella pneumoniae, strain KPN LIB, genotype SHV-11, OXA-48, read-out: MIC | [5]; Klebsiella pneumoniae, strain KPN UFR22_O, genotype TEM-1, SHV-1, OXA-48, read-out: MIC
> 512 µg/mL: [5]; Klebsiella pneumoniae, BAA1898, strain KPN BAA-1898, genotype TEM-1, SHV-11, SHV-12, KPC-2, read-out: MIC
32 µg/mL: [2]; Serratia marcescens, strain SMA UFR30, genotype OXA-405, read-out: MIC | [5]; Klebsiella pneumoniae, strain KPN UFR79, genotype DHA-1, OXA-1, read-out: MIC
16 µg/mL: [1]; Citrobacter koseri, strain CKO UFR150, genotype TEM-1, OXA-48, read-out: MIC | [2]; Serratia marcescens, strain SMA UFR239, genotype ESAC, read-out: MIC | [4]; Morganella morganii, strain MMO UFR244, genotype DHA-1, read-out: MIC | [5]; Klebsiella pneumoniae, strain KPN 700603, genotype SHV-18, OXA-2, read-out: MIC
